Test results from ChEMBL document CHEMBL1155271, “Synthesis, crystal structures and antibacterial activity studies of aza-derivatives of phytoalexin from cotton plant--gossypol” (2009).
Converted amounts (≈) assume the structure as drawn. The source made the active and inactive calls. No cut-off for these calls is given here.

Legend:
Staphylococcus aureus [1] = test: Antimicrobial activity against methicillin-resistant Staphylococcus aureus 140/6 by twofold dilution technique; format: functional
Micrococcus luteus [2] = test: Antimicrobial activity against Micrococcus luteus ATCC 9341 after 18 hrs by twofold dilution technique; format: functional; conditions: ATCC 9341, 18 h
Staphylococcus aureus [3] = test: microbe, parasite or virus in culture; conditions: ATCC 6538, 18 h, read-out: DIZ
Description: Antimicrobial activity against Staphylococcus aureus ATCC 6538 at 5 ug after 18 hrs by disk diffusion method

Staphylococcus aureus [4] = test: Antimicrobial activity against Methicillin susceptible Staphylococcus aureus 213/7 by twofold dilution technique; format: functional
Staphylococcus aureus [5] = test: Antimicrobial activity against Methicillin susceptible Staphylococcus aureus 207/7 by twofold dilution technique; format: functional
Staphylococcus aureus [6] = test: microbe, parasite or virus in culture; conditions: ATCC 25923, 18 h, read-out: DIZ
Description: Antimicrobial activity against Staphylococcus aureus ATCC 25923 at 5 ug after 18 hrs by disk diffusion method

Staphylococcus aureus [7] = test: Antimicrobial activity against Staphylococcus aureus ATCC 29213 after 18 hrs by twofold dilution technique; format: functional; conditions: ATCC 29213, 18 h
Staphylococcus aureus [8] = test: Antimicrobial activity against methicillin-resistant Staphylococcus aureus 217/7 by twofold dilution technique; format: functional
Staphylococcus aureus [9] = test: Antimicrobial activity against methicillin-resistant Staphylococcus aureus 144/6 by twofold dilution technique; format: functional
Staphylococcus aureus [10] = test: Antimicrobial activity against Methicillin susceptible Staphylococcus aureus 239/7 by twofold dilution technique; format: functional
Staphylococcus aureus [11] = test: Antimicrobial activity against methicillin-resistant Staphylococcus aureus 146/6 by twofold dilution technique; format: functional
Staphylococcus aureus [12] = test: Antimicrobial activity against Methicillin susceptible Staphylococcus aureus 208/7 by twofold dilution technique; format: functional
[13] = system: Staphylococcus epidermidis; test: Antimicrobial activity against Staphylococcus epidermidis ATCC 12228 by twofold dilution technique; format: functional
Staphylococcus aureus [14] = test: Antimicrobial activity against methicillin-resistant Staphylococcus aureus 143/6 by twofold dilution technique; format: functional
Staphylococcus aureus [15] = test: microbe, parasite or virus in culture; conditions: NCTC 4163, 18 h, read-out: DIZ
Description: Antimicrobial activity against Staphylococcus aureus NCTC 4163 at 5 ug after 18 hrs by disk diffusion method

Staphylococcus aureus [16] = test: Antimicrobial activity against methicillin-resistant Staphylococcus aureus 218/7 by twofold dilution technique; format: functional
Staphylococcus aureus [17] = test: Antimicrobial activity against methicillin-resistant Staphylococcus aureus 136/6 by twofold dilution technique; format: functional
[18] = system: Staphylococcus epidermidis; test: microbe, parasite or virus in culture; conditions: ATCC 12228, 18 h, read-out: DIZ
Description: Antimicrobial activity against Staphylococcus epidermidis ATCC 12228 at 5 ug after 18 hrs by disk diffusion method

Bacillus cereus [19] = test: Antimicrobial activity against Bacillus cereus ATCC 11778 after 18 hrs by twofold dilution technique; format: functional; conditions: ATCC 11778, 18 h
Staphylococcus aureus [20] = test: Antimicrobial activity against methicillin-resistant Staphylococcus aureus 141/6 by twofold dilution technique; format: functional
Staphylococcus aureus [21] = test: Antimicrobial activity against Staphylococcus aureus ATCC 25923 after 18 hrs by twofold dilution technique; format: functional; conditions: ATCC 25923, 18 h
Staphylococcus aureus [22] = test: Antimicrobial activity against Staphylococcus aureus NCTC 4163 after 18 hrs by twofold dilution technique; format: functional; conditions: NCTC 4163, 18 h
Staphylococcus aureus [23] = test: Antimicrobial activity against Methicillin susceptible Staphylococcus aureus 206/7 by twofold dilution technique; format: functional
Bacillus subtilis [24] = test: Antimicrobial activity against Bacillus subtilis ATCC 6633 after 18 hrs by twofold dilution technique; format: functional; conditions: ATCC 6633, 18 h
Micrococcus luteus [25] = test: Antimicrobial activity against Micrococcus luteus ATCC 10240 by twofold dilution technique; format: functional
Staphylococcus aureus [26] = test: Antimicrobial activity against Methicillin susceptible Staphylococcus aureus 243/7 by twofold dilution technique; format: functional
Bacillus subtilis [27] = test: microbe, parasite or virus in culture; conditions: ATCC 6633, 18 h, read-out: DIZ
Description: Antimicrobial activity against Bacillus subtilis ATCC 6633 at 5 ug after 18 hrs by disk diffusion method

Micrococcus luteus [28] = test: Antimicrobial activity against Micrococcus luteus ATCC 9341 at 5 ug after 18 hrs by disk diffusion method; format: functional; conditions: ATCC 9341, 18 h, read-out: DIZ
Staphylococcus aureus [29] = test: Antimicrobial activity against methicillin-resistant Staphylococcus aureus 200/7 by twofold dilution technique; format: functional
Enterococcus hirae [30] = test: Antimicrobial activity against Enterococcus hirae ATCC 10541 after 18 hrs by twofold dilution technique; format: functional; conditions: ATCC 10541, 18 h
Staphylococcus aureus [31] = test: Antimicrobial activity against Methicillin susceptible Staphylococcus aureus 238/7 by twofold dilution technique; format: functional
Micrococcus luteus [32] = test: Antimicrobial activity against Micrococcus luteus ATCC 10240 at 5 ug after 18 hrs by disk diffusion method; format: functional; conditions: ATCC 10240, 18 h, read-out: DIZ
Staphylococcus aureus [33] = test: Antimicrobial activity against Methicillin susceptible Staphylococcus aureus 242/7 by twofold dilution technique; format: functional
Enterococcus hirae [34] = test: Antimicrobial activity against Enterococcus hirae ATCC 10541 at 5 ug after 18 hrs by disk diffusion method; format: functional, organism-based
Staphylococcus aureus [35] = test: Antimicrobial activity against Methicillin susceptible Staphylococcus aureus 237/7 by twofold dilution technique; format: functional
Bacillus cereus [36] = test: Antimicrobial activity against Bacillus cereus ATCC 11778 at 5 ug after 18 hrs by disk diffusion method; format: functional; conditions: ATCC 11778, 18 h, read-out: DIZ
Staphylococcus aureus [37] = test: Antimicrobial activity against Staphylococcus aureus ATCC 6538 after 18 hrs by twofold dilution technique; format: functional; conditions: ATCC 6538, 18 h
Staphylococcus aureus [38] = test: Antimicrobial activity against Methicillin susceptible Staphylococcus aureus 212/7 by twofold dilution technique; format: functional
Staphylococcus aureus [39] = test: microbe, parasite or virus in culture; conditions: ATCC 29213, 18 h, read-out: DIZ
Description: Antimicrobial activity against Staphylococcus aureus ATCC 29213 at 5 ug after 18 hrs by disk diffusion method

Staphylococcus aureus [40] = test: Antimicrobial activity against methicillin-resistant Staphylococcus aureus 236/7 by twofold dilution technique; format: functional
Staphylococcus aureus [41] = test: Antimicrobial activity against Staphylococcus aureus ATCC 29213 at 400 ug after 18 hrs by disk diffusion method; format: functional; conditions: ATCC 29213, 18 h, read-out: DIZ
Bacillus cereus [42] = test: Antimicrobial activity against Bacillus cereus ATCC 11778 at 400 ug after 18 hrs by disk diffusion method; format: functional; conditions: ATCC 11778, 18 h, read-out: DIZ
Micrococcus luteus [43] = test: Antimicrobial activity against Micrococcus luteus ATCC 10240 at 400 ug after 18 hrs by disk diffusion method; format: functional; conditions: ATCC 10240, 18 h, read-out: DIZ
Enterococcus hirae [44] = test: Antimicrobial activity against Enterococcus hirae ATCC 10541 at 400 ug after 18 hrs by disk diffusion method; format: functional; conditions: ATCC 10541, 18 h, read-out: DIZ
Staphylococcus aureus [45] = test: Antimicrobial activity against Staphylococcus aureus ATCC 6538 at 400 ug after 18 hrs by disk diffusion method; format: functional; conditions: ATCC 6538, 18 h, read-out: DIZ
[46] = system: Staphylococcus epidermidis; test: Antimicrobial activity against Staphylococcus epidermidis ATCC 12228 at 400 ug after 18 hrs by disk diffusion method; format: functional; conditions: ATCC 12228, 18 h, read-out: DIZ
Micrococcus luteus [47] = test: Antimicrobial activity against Micrococcus luteus ATCC 9341 at 400 ug after 18 hrs by disk diffusion method; format: functional; conditions: ATCC 9341, 18 h, read-out: DIZ
Staphylococcus aureus [48] = test: Antimicrobial activity against Staphylococcus aureus NCTC 4163 at 400 ug after 18 hrs by disk diffusion method; format: functional; conditions: NCTC 4163, 18 h, read-out: DIZ
Staphylococcus aureus [49] = test: Antimicrobial activity against Staphylococcus aureus ATCC 25923 at 400 ug after 18 hrs by disk diffusion method; format: functional; conditions: ATCC 25923, 18 h, read-out: DIZ
Bacillus subtilis [50] = test: Antimicrobial activity against Bacillus subtilis ATCC 6633 at 400 ug after 18 hrs by disk diffusion method; format: functional; conditions: ATCC 6633, 18 h, read-out: DIZ

Structure (SMILES) | MIC (Staphylococcus aureus [1]) | MIC (Micrococcus luteus [2]) | MIC (Staphylococcus aureus [4]) | MIC (Staphylococcus aureus [5]) | MIC (Staphylococcus aureus [7]) | MIC (Staphylococcus aureus [8]) | MIC (Staphylococcus aureus [9]) | MIC (Staphylococcus aureus [10]) | MIC (Staphylococcus aureus [11]) | MIC (Staphylococcus aureus [12]) | MIC [13] | MIC (Staphylococcus aureus [14]) | MIC (Staphylococcus aureus [16]) | MIC (Staphylococcus aureus [17]) | MIC (Bacillus cereus [19]) | MIC (Staphylococcus aureus [20]) | MIC (Staphylococcus aureus [21]) | MIC (Staphylococcus aureus [22]) | MIC (Staphylococcus aureus [23]) | MIC (Bacillus subtilis [24]) | also measured
O=C(O)c1cn(C2CC2)c2cc(N3CCNCC3)c(F)cc2c1=O [CIPROFLOXACIN] | > 8 µg/mL | 0.5 µg/mL (≈ 1.51 µM) | 0.5 µg/mL (≈ 1.51 µM) | 0.5 µg/mL (≈ 1.51 µM) | 0.5 µg/mL (≈ 1.51 µM) | > 8 µg/mL | > 8 µg/mL | 0.5 µg/mL (≈ 1.51 µM) | > 8 µg/mL | 0.5 µg/mL (≈ 1.51 µM) | 4 µg/mL (≈ 12.1 µM) | > 8 µg/mL | 4 µg/mL (≈ 12.1 µM) | > 8 µg/mL | 1 µg/mL (≈ 3.02 µM) | > 8 µg/mL | 0.5 µg/mL (≈ 1.51 µM) | 0.5 µg/mL (≈ 1.51 µM) | 2 µg/mL (≈ 6.04 µM) | 2 µg/mL (≈ 6.04 µM) | zone of inhibition at 5 µg/disc (Staphylococcus aureus [3]): 28 mm; zone of inhibition at 5 µg/disc (Staphylococcus aureus [6]): 26 mm; zone of inhibition at 5 µg/disc (Staphylococcus aureus [15]): 26 mm; zone of inhibition at 5 µg/disc [18]: 30 mm; MIC (Micrococcus luteus [25]): 0.5 µg/mL (≈ 1.51 µM); MIC (Staphylococcus aureus [26]): 0.5 µg/mL (≈ 1.51 µM); zone of inhibition at 5 µg/disc (Bacillus subtilis [27]): 40 mm; zone of inhibition at 5 µg/disc (Micrococcus luteus [28]): 22 mm; MIC (Staphylococcus aureus [29]): > 8 µg/mL; MIC (Enterococcus hirae [30]): 0.5 µg/mL (≈ 1.51 µM); MIC (Staphylococcus aureus [31]): 0.5 µg/mL (≈ 1.51 µM); zone of inhibition at 5 µg/disc (Micrococcus luteus [32]): 24 mm; MIC (Staphylococcus aureus [33]): 0.5 µg/mL (≈ 1.51 µM); diameter of the inhibition zone (DIZ) (Enterococcus hirae [34]): inactive; MIC (Staphylococcus aureus [35]): 4 µg/mL (≈ 12.1 µM); zone of inhibition at 5 µg/disc (Bacillus cereus [36]): 20 mm; MIC (Staphylococcus aureus [37]): < 0.125 µg/mL; MIC (Staphylococcus aureus [38]): 0.5 µg/mL (≈ 1.51 µM); zone of inhibition at 5 µg/disc (Staphylococcus aureus [39]): 22 mm; MIC (Staphylococcus aureus [40]): 1 µg/mL (≈ 3.02 µM)
COc1ccc2[nH]cc(CCN/C=C3\C(=O)C(O)=C(C(C)C)c4cc(C)c(-c5c(C)cc6c(c5O)/C(=C/NCCc5c[nH]c7ccc(OC)cc57)C(=O)C(O)=C6C(C)C)c(O)c43)c2c1 | 100 µg/mL (≈ 116 µM) | 100 µg/mL (≈ 116 µM) | 100 µg/mL (≈ 116 µM) | 200 µg/mL (≈ 232 µM) | 50 µg/mL (≈ 57.9 µM) | 200 µg/mL (≈ 232 µM) | 200 µg/mL (≈ 232 µM) | 100 µg/mL (≈ 116 µM) | 100 µg/mL (≈ 116 µM) | 100 µg/mL (≈ 116 µM) | 200 µg/mL (≈ 232 µM) | 100 µg/mL (≈ 116 µM) | 100 µg/mL (≈ 116 µM) | 100 µg/mL (≈ 116 µM) | 100 µg/mL (≈ 116 µM) | 100 µg/mL (≈ 116 µM) | 100 µg/mL (≈ 116 µM) | 100 µg/mL (≈ 116 µM) | 100 µg/mL (≈ 116 µM) | 200 µg/mL (≈ 232 µM) | zone of inhibition at 400 µg/disc (Staphylococcus aureus [41]): 15 mm; zone of inhibition at 400 µg/disc (Bacillus cereus [42]): 15 mm; zone of inhibition at 400 µg/disc (Micrococcus luteus [43]): 15 mm; zone of inhibition at 400 µg/disc (Enterococcus hirae [44]): 14 mm; zone of inhibition at 400 µg/disc (Staphylococcus aureus [45]): 16 mm; zone of inhibition at 400 µg/disc [46]: 15 mm; zone of inhibition at 400 µg/disc (Micrococcus luteus [47]): 11 mm; MIC (Micrococcus luteus [25]): 100 µg/mL (≈ 116 µM); MIC (Staphylococcus aureus [26]): 100 µg/mL (≈ 116 µM); MIC (Staphylococcus aureus [29]): 100 µg/mL (≈ 116 µM); MIC (Enterococcus hirae [30]): 100 µg/mL (≈ 116 µM); MIC (Staphylococcus aureus [31]): 100 µg/mL (≈ 116 µM); MIC (Staphylococcus aureus [33]): 50 µg/mL (≈ 57.9 µM); MIC (Staphylococcus aureus [35]): 100 µg/mL (≈ 116 µM); MIC (Staphylococcus aureus [37]): 50 µg/mL (≈ 57.9 µM); zone of inhibition at 400 µg/disc (Staphylococcus aureus [48]): 16 mm; zone of inhibition at 400 µg/disc (Staphylococcus aureus [49]): 15 mm; MIC (Staphylococcus aureus [38]): 100 µg/mL (≈ 116 µM); zone of inhibition at 400 µg/disc (Bacillus subtilis [50]): 15 mm; MIC (Staphylococcus aureus [40]): 100 µg/mL (≈ 116 µM)
